This is an account of results in patent US20260092071A1, “COMPOUNDS AND COMPOSITIONS AS SMARCA2/4 DEGRADERS AND USES THEREOF” (REGENTS OF THE UNIVERSITY OF MICHIGAN, priority 2022, published 2026).

Structures are written as SMILES. Where two headings read alike, the source gives them in different places.

One assay concerns the target SMARCA4 (Homo sapiens, UniProt P51532). The assay can be described thus: HiBiT assay for protein degradation, Hela SMARCA4-HiBiT cells (A series). It counts as cell-based. Details: fuse HiBiT to the carboxy terminus of SMARCA2 (Promega CS302365) or SMARCA4 (Promega CS3023225); host or cells: HeLa (CRISPR/Cas9 HiBiT knock-in). The note with it: for DC50: read-out: SMARC A4 Hela HiBit DC50. The essentials: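 HeLa cells engineered by CRISPR/Cas9 to carry a HiBiT tag fused to the C-terminus of SMARCA4 (Promega CS3023225) were grown in DMEM supplemented with FBS and penicillin-streptomycin. After compound exposure, remaining SMARCA4 protein was quantified using the Nano-Glo® HiBiT Lytic Detection Assay (Promega N3050), and curves were fitted in GraphPad Prism.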

The target in another assay is SMARCA2 (Homo sapiens, UniProt P51531). Put plainly: HiBiT assay for protein degradation, Hela SMARCA2-HiBiT cells (A series).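 As to SMARC A2 Hela HiBit Dmax (%): 24 h compound treatment.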 The note with it: for DC50: read-out: SMARC A2 Hela HiBit DC50; for Dmax: read-out: SMARC A2 Hela HiBit Dmax (%). Type of assay: cell-based. Further details: Hela cells were genetically modified via CRISPR/Cas9 to fuse HiBiT to the carboxy terminus of SMARCA2; host or cells: HeLa (CRISPR/Cas9 HiBiT knock-in). The essentials:
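HeLa cells engineered by CRISPR/Cas9 to carry a HiBiT tag fused to the C-terminus of SMARCA2 (Promega CS302365) were grown in DMEM supplemented with FBS and penicillin-streptomycin. After treatment, remaining SMARCA2 protein was quantified with the Nano-Glo® HiBiT Lytic Detection Assay (Promega N3050), and curves were fitted in GraphPad Prism.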

Where [1] appears, read: Hela SMARCA4-HiBiT cells, 24 hours treatment.
Where [2] appears, read: Hela SMARCA4-HiBiT cells, 24 hours treatment, read-out: SMARC A4 Hela HiBit Dmax.
Setting [3] is: Hela SMARCA2-HiBiT cells, 24 hours treatment.
The mark [4] stands for this setting: HeLa, read-out: SMARC A4 Hela HiBit Dmax(%).
[5] abbreviates: Hela SMARCA4-HiBiT cells, 24 hours treatment, read-out: SMARC A4 Hela HiBit Dmax(%).

Chain of SMARCA4 (P51532 whole entry, the tested form may be a part): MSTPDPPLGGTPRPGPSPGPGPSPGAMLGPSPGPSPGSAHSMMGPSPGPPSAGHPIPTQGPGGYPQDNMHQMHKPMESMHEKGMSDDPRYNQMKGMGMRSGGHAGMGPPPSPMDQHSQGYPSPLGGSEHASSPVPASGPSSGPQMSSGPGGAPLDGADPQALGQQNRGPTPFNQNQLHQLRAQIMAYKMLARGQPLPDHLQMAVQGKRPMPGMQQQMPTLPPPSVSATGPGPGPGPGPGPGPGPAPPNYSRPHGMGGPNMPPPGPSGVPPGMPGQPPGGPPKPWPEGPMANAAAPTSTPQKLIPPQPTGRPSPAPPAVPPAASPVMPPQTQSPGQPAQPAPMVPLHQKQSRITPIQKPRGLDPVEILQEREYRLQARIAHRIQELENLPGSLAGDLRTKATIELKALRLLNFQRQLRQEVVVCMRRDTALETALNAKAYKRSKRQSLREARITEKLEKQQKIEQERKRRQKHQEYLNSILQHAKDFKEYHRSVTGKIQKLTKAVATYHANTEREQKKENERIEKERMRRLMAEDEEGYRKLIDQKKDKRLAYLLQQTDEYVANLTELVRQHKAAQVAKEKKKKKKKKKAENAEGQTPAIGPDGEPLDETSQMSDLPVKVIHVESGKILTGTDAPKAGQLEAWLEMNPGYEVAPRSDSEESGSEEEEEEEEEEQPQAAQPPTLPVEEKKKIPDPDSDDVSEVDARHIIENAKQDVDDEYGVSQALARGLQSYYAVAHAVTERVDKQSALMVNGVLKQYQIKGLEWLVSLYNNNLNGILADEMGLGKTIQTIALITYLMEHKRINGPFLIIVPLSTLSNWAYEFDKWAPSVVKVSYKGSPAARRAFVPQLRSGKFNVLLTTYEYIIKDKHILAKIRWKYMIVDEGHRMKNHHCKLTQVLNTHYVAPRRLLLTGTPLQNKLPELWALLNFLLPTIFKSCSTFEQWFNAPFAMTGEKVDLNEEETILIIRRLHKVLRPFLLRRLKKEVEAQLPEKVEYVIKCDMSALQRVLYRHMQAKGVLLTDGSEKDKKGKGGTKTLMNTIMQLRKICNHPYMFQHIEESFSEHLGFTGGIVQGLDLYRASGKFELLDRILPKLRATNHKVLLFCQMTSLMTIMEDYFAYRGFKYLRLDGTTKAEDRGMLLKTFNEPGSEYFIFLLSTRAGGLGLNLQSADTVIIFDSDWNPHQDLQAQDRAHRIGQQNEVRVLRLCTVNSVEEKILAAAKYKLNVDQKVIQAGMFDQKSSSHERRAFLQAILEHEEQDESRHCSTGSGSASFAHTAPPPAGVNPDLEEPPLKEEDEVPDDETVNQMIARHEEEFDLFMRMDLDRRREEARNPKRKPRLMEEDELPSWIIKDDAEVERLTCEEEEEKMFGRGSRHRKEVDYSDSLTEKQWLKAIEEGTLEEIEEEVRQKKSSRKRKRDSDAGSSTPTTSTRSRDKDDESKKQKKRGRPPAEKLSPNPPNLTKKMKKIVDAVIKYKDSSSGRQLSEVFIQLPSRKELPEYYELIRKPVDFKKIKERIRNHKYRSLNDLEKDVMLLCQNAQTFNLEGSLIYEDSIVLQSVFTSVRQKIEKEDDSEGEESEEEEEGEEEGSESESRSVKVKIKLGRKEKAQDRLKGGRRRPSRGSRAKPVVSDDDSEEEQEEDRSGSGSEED
Chain of SMARCA2 (P51531 whole entry, the tested form may be a part): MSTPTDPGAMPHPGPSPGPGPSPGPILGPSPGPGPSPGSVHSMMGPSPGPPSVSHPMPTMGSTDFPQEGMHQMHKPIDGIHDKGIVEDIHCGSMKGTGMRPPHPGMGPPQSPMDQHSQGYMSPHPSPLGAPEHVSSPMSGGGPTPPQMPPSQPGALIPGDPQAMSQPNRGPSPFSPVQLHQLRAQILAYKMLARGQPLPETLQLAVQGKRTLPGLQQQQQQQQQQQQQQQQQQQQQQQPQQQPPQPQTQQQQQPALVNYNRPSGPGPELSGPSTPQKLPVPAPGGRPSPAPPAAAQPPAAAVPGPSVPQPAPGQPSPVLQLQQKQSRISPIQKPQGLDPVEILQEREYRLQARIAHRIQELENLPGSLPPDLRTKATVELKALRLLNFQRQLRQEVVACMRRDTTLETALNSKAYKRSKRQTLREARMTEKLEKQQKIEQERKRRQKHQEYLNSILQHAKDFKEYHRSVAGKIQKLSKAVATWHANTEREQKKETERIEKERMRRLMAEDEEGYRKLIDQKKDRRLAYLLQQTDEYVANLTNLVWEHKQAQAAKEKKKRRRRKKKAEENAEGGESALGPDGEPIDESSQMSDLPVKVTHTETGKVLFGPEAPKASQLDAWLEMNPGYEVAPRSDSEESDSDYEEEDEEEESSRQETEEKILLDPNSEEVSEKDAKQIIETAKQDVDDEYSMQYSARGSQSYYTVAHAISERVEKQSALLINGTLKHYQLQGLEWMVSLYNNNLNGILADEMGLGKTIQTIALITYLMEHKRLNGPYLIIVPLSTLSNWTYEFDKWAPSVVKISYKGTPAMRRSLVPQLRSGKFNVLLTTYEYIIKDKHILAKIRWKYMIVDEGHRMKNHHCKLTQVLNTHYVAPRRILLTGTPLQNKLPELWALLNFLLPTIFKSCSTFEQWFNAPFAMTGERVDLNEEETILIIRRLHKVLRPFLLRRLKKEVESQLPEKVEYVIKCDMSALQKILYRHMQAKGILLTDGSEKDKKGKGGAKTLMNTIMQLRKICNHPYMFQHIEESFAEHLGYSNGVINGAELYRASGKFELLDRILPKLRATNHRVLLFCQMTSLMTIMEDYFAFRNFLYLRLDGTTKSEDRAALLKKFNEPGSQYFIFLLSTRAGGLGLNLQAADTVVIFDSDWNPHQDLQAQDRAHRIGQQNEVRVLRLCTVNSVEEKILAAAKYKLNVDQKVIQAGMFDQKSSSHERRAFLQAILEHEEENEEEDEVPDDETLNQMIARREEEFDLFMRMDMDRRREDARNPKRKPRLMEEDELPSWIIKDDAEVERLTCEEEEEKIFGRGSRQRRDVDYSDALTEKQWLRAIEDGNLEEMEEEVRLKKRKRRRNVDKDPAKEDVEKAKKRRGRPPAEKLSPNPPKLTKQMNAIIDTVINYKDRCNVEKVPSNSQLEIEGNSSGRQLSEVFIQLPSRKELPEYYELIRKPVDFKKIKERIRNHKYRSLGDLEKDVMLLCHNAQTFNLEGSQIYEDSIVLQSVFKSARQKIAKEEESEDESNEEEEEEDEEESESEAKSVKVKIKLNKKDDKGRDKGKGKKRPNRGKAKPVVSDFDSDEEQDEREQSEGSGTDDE

One may read the DC50 as the concentration at which degradation of the target reaches its halfway point. What is called Dmax is the largest share of the target that was removed. As to `Cc1ncsc1-c1ccc([C@H](CN2CCOCC2)NC(=O)[C@@H]2C[C@@H](O)CN2C(=O)[C@H](C2CCCCC2)n2cc(-c3ccc(CN4CCC(c5ccc6c(c5)-n5c(nc(=O)c7c(Br)cccc75)C65CCCCC5)CC4)cc3)nn2)cc1` [Compound A128, (2S,4R)-1-((S)-2-(4-(4-((4-(4′-bromo-5′-oxo-5′H-spiro[cyclohexane-1,7′-indolo[1,2-a]quinazolin]-10′-yl)piperidin-1-yl)methyl)phenyl)-1H-1,2,3-triazol-1-yl)-2-cyclohexylacetyl)-4-hydroxy-N—((R)-1-(4-(4-methylthiazol-5-yl)phenyl)-2-morpholinoethyl)pyrrolidine-2-carboxamide], the values for the DC50 on SMARCA4 (setting [1]) and at SMARCA2 (setting [3]) were greater than 1000 nM and 100 to 1000 nM, respectively. Besides, the Dmax on SMARCA4 (setting [2]) is less than 50%; on SMARCA2 (setting [3]) it was 50 to 69%.
Taken in the same sequence, the figures for `Cc1ncsc1-c1ccc([C@H](CC(=O)N(C)C)NC(=O)[C@@H]2C[C@@H](O)CN2C(=O)[C@@H](n2cc([C@H]3CC[C@H](CN4CCC(c5ccc6c(c5)-n5c(nc(=O)c7c(Cl)cccc75)C65CCCCC5)CC4)CC3)nn2)C(C)(C)C)cc1` [Compound A147, (2S,4R)-1-((S)-2-(4-((1r,4S)-4-((4-(4′-chloro-5′-oxo-5′H-spiro[cyclohexane-1,7′-indolo[1,2-a]quinazolin]-10′-yl)piperidin-1-yl)methyl)cyclohexyl)-1H-1,2,3-triazol-1-yl)-3,3-dimethylbutanoyl)-N—((S)-3-(dimethylamino)-1-(4-(4-methylthiazol-5-yl)phenyl)-3-oxopropyl)-4-hydroxypyrrolidine-2-carboxamide] were greater than 1000 nM, less than 10 nM, 50 to 69% and greater than 90%.
With `Cc1ncsc1-c1ccc([C@H](C)NC(=O)[C@@H]2C[C@@H](O)CN2C(=O)[C@@H](NC(=O)[C@H]2CC[C@H](CN3CCC(c4ccc5c(c4)-n4c(nc(=O)c6c(Br)cccc64)C54CCCCC4)CC3)CC2)C(C)(C)C)cc1` [Compound A41, (2S,4R)-1-((S)-2-((1r,4S)-4-((4-(4′-bromo-5′-oxo-5′H-spiro[cyclohexane-1,7′-indolo[1,2-a]quinazolin]-10′-yl)piperidin-1-yl)methyl)cyclohexane-1-carboxamido)-3,3-dimethylbutanoyl)-4-hydroxy-N—((S)-1-(4-(4-methylthiazol-5-yl)phenyl)ethyl)pyrrolidine-2-carboxamide], the Dmax was less than 50% on SMARCA4 (setting [4]) and 70 to 90% at SMARCA2 (HeLa). In addition, the “SMARC A4 Hela HiBit DC50(nM)” value on SMARCA4 (setting [1]) is “No Fit”. For the same compound, the DC50 at SMARCA2 (setting [3]) was less than 100 nM.
Turning to `Cc1ncsc1-c1ccc([C@H](CN2CCC(O)CC2)NC(=O)[C@@H]2C[C@@H](O)CN2C(=O)[C@@H](n2cc([C@H]3CC[C@H](CN4CCC(c5ccc6c(c5)-n5c(nc(=O)c7c(Cl)cccc75)C65CCCCC5)CC4)CC3)nn2)C(C)(C)C)cc1` [Compound A73, (2S,4R)-1-((S)-2-(4-((1r,4S)-4-((4-(4′-chloro-5′-oxo-5′H-spiro[cyclohexane-1,7′-indolo[1,2-a]quinazolin]-10′-yl)piperidin-1-yl)methyl)cyclohexyl)-1H-1,2,3-triazol-1-yl)-3,3-dimethylbutanoyl)-4-hydroxy-N—((R)-2-(4-hydroxypiperidin-1-yl)-1-(4-(4-methylthiazol-5-yl)phenyl)ethyl)pyrrolidine-2-carboxamide], the DC50 was greater than 1000 nM on SMARCA4 (setting [1]) and less than 100 nM at SMARCA2 (setting [3]). Moreover, the Dmax at SMARCA4 (setting [5]) is 50 to 69%; on SMARCA2 (setting [3]), greater than 90%.
Take `Cc1ncsc1-c1ccc(CNC(=O)[C@@H]2C[C@@H](O)CN2C(=O)[C@@H](n2cc([C@H]3CC[C@H](CN4CCC(c5ccc6c(c5)-n5c(nc(=O)c7c(Br)cccc75)C65CCCCC5)CC4)CC3)nn2)C(C)(C)C)cc1` [Compound A67, (2S,4R)-1-((S)-2-(4-((1r,4S)-4-((4-(4′-bromo-5′-oxo-5′H-spiro[cyclohexane-1,7′-indolo[1,2-a]quinazolin]-10′-yl)piperidin-1-yl)methyl)cyclohexyl)-1H-1,2,3-triazol-1-yl)-3,3-dimethylbutanoyl)-4-hydroxy-N-(4-(4-methylthiazol-5-yl)benzyl)pyrrolidine-2-carboxamide]: the DC50 at SMARCA4 (setting [1]) and at SMARCA2 (setting [3]) was less than 100 nM throughout. Also, the Dmax is 70 to 90% at SMARCA4 (setting [5]) and greater than 90% on SMARCA2 (setting [3]).
On to `Cc1ncsc1-c1ccc([C@H](CCCCCN2CCC(c3ccc4c(c3)C3(CCCC3)c3nc(=O)c5c(Cl)cccc5n3-4)CC2)NC(=O)[C@@H]2C[C@@H](O)CN2C(=O)[C@@H](NC(=O)C2(F)CC2)C(C)(C)C)cc1` [Compound A2, (2S,4R)—N—((S)-6-(4-(4′-chloro-5′-oxo-5′H-spiro[cyclopentane-1,7′-indolo[1,2-a]quinazolin]-9′-yl)piperidin-1-yl)-1-(4-(4-methylthiazol-5-yl)phenyl)hexyl)-1-((S)-2-(1-fluorocyclopropane-1-carboxamido)-3,3-dimethylbutanoyl)-4-hydroxypyrrolidine-2-carboxamide], for which the DC50 on SMARCA4 (setting [1]) and on SMARCA2 (setting [3]) was less than 100 nM throughout. The Dmax is 70 to 90% on SMARCA4 (setting [5]) and greater than 90% on SMARCA2 (setting [3]).
For the compound `Cc1ncsc1-c1ccc([C@H](C)NC(=O)[C@@H]2C[C@@H](O)CN2C(=O)[C@@H](NC(=O)[C@H]2CC[C@H](CN3CCC(c4ccc5c(c4)C4(CCCCC4)c4nc(=O)c6c(Cl)cccc6n4-5)CC3)CC2)C(C)(C)C)cc1` [Compound A11, (2S,4R)-1-((S)-2-((1r,4S)-4-((4-(4′-chloro-5′-oxo-5′H-spiro[cyclohexane-1,7′-indolo[1,2-a]quinazolin]-9′-yl)piperidin-1-yl)methyl)cyclohexane-1-carboxamido)-3,3-dimethylbutanoyl)-4-hydroxy-N—((S)-1-(4-(4-methylthiazol-5-yl)phenyl)ethyl)pyrrolidine-2-carboxamide], the results for the Dmax at SMARCA4 (setting [4]) and at SMARCA2 (HeLa) were less than 50% and 70 to 90%, respectively. Moreover, the “SMARC A4 Hela HiBit DC50(nM)” value on SMARCA4 (setting [1]) was “No fit”. The DC50 at SMARCA2 (setting [3]) is less than 100 nM.
For the compound `Cc1ncsc1-c1ccc([C@H](CN2CC3(COC3)C2)NC(=O)[C@@H]2C[C@@H](O)CN2C(=O)[C@@H](n2cc([C@H]3CC[C@H](CN4CCC(c5ccc6c(c5)-n5c(nc(=O)c7c(Cl)cccc75)C65CCCCC5)CC4)CC3)nn2)C(C)(C)C)cc1` [Compound A96, (2S,4R)-1-((S)-2-(4-((1r,4S)-4-((4-(4′-chloro-5′-oxo-5′H-spiro[cyclohexane-1,7′-indolo[1,2-a]quinazolin]-10′-yl)piperidin-1-yl)methyl)cyclohexyl)-1H-1,2,3-triazol-1-yl)-3,3-dimethylbutanoyl)-4-hydroxy-N—((R)-1-(4-(4-methylthiazol-5-yl)phenyl)-2-(2-oxa-6-azaspiro[3.3]heptan-6-yl)ethyl)pyrrolidine-2-carboxamide], the results for the DC50 on SMARCA4 (setting [1]) and at SMARCA2 (setting [3]) were greater than 1000 nM and less than 10 nM, respectively. Besides, the Dmax on SMARCA4 (setting [2]) is 50 to 69%; at SMARCA2 (setting [3]) it was greater than 90%.
